What all share (format): cell-based, human
Assay [1] has as its system MDA-MB-231 cells. Briefly: Nuclear (Hoechst) staining for apoptotic cells after tamoxifen. As to conditions: MDA-MB-231, stimulation 24 and 48 hours, tamoxifen 5 μM for the last 20 hours. The procedure: (§1) MDA-MB-231 cells were grown in 6 well plates and stimulated with recombinant Wnt-5a protein (rW5a) or the Wnt-5a derived Foxy-5 peptide (F5), for 24 or 48 h. Cells were treated with tamoxifen for the final 20 h and their apoptotic responses were measured via different methods. […] Arrows highlight apoptotic cells. Bars represent […]. B: Following treatment with rW5a, F5 and tamoxifen, or tamoxifen alone, cells were lysed and subjected to SDS-PAGE, transferred to nitrocellulose membranes and blotted for cleaved caspase 3. C: Treated cells were assessed for their relative caspase 3 activity using fluorometric spectrophotometry. The graph represents 6 separate experiments. * P<0.01, ** P<0.001. D: MTT assays were also performed on MDA-MB-231 cells treated with rWnt-5a, F5 and tamoxifen, or tamoxifen alone (MDA-MB-231 and MCF-7 cells) to assess cell growth inhibition. The graph represents the average of 6 separate experiments, with standard deviation represented by error bars. ** P<0.01, *** P<0.001.
MDA-MB-231 cells were plated on cover slips and allowed to adhere. Wnt-5a (0.6 μg/ml) or Foxy-5 (100 μM) were added for 24 or 48 hours. Cells were then treated with tamoxifen (5 μM) for the last 20 hours. MCF-7 cells were used as a positive control. […] The morphology was analyzed with Nikon E800 Eclipse Microscope with 60× objective.

The test system of assay [2] is Caspase 3. Briefly: Caspase 3 activity assay (fluorometric, DEVD-amc). As to conditions: MDA-MB-231, stimulation plus tamoxifen 1 μM 20 hours; compared to untreated cells or tamoxifen alone. The procedure: as §1
Caspase 3 activity was determined via fluorescent spectrometry. The fluorogenic peptide DEVD-amc (Upstate Biotech) was used as a substrate. […] Reactions were incubated at 37° C. for 1 h and analysed on a FLUOstar plate reader (BMG Lab technologies). The total protein content of each lysates was measured using the Coomassie Plus Protein Assay and read outs averaged and adjusted accordingly. […]

In assay [3] the test system is ERα. Nature of the assay: RT-PCR of estrogen responsive genes CATD and EBAG9 after estradiol and tamoxifen. As to conditions: MDA-MB-231, hormone free media, pretreatment, estradiol plus tamoxifen, at 48 hours. The procedure: MDA-MB-231 cells were grown in 6 well plates and stimulated with recombinant Wnt-5a (rW5a) or the Wnt-5a derived Foxy-5 peptide (F5), for 24 h or 48 h. The ERα ligand estradiol was added for the final 22 h, and tamoxifen for the final 20 h to a subset of samples. RNA was extracted at the end time point, cDNA synthesized and subjected to RT-PCR for Cathepsin D (CATD), ER-binding fragment associated antigen 9 (EBAG9) and the housekeeping gene, β-actin.
cDNA was synthesized from 1 μg of total RNA using M-MuLV reverse transcriptase (Fermentas) in a MJ Mini Personal Thermal Cycler (Bio-Rad (Hercules Calif.)). All RT-PCR was performed in a designated clean PCR hood. RT-PCR was performed using a master mix containing with 5 μl of 10× buffer, 5 μl of 25 mM MgCl2, 1 μl 10 mM dNTP, 1 μl forward primer, 1 μl reverse primer and 0.2 μl of Taq polymerase (Fermentas (Ontario, Canada)) per sample. For detection of the progesterone receptor (PR), semi nested RT-PCR was performed to increase sensitivity, whereby 10 μl of the initial PCR reaction product was added to a second PCR reaction with a second internal reverse primer. Both A and β isoforms are amplified with these primers.

Assay [4] has as its system Phospho-ERα (Ser 118). Nature of the assay: Phospho-ERα (Ser 118) Western blot in MDA-MB-231 cells. As to conditions: stimulated lysates. The procedure:
MDA-MB-231 cells were grown in 6 well plates and stimulated with recombinant Wnt-5a protein (rW5a) or the Wnt-5a derived Foxy-5 peptide (F5), for 24 or 48 h. A: Following treatment, cells were lysed and subjected to SDS-PAGE, transferred to nitrocellulose membranes and blotted for phospho-ERα expression. The positive control (Pos) represents cell lysates from T47D cells expressing ERα B and C: RNA was also extracted from stimulated cells and samples tested for progesterone receptor (PR) (B) and pS2 (C) mRNA using semi-nested RT-PCR. The positive control (Pos) is RNA extracted from T47D cells that express ERα. The negative control represents a water control. PCR results are representative of three separate experiments.
Cells were lysed in Triton lysis buffer (50 mM Tris (pH7.5), 1% Triton x-100, 140 mM NaCl, 0.5 mM EDTA, 0.5 MgCl2, 10 mM NaF) with the addition of fresh leupeptin (1 μg/ml), Pefabloc (2 mM), aprotinin (20 μg/ml) and Na3VO4 (4 mM). Lysates were incubated on ice for 15 minutes, then pre-cleared by centrifugation for 10 minutes at 8000 g. Cell lysates were separated according to size on 8-12% SDS-polyacrylamide gels and subsequently electrically transferred to PVDF or nitrocellulose membranes. […] Scanning and densitometry was performed using a Bio-Rad (Hercules Calif.) GS-800 densitometer with Quantity One software. […]
A general note: A western blot detects proteins with antibodies after separation by electrophoresis.

Where no end group is shown, it is not given here. The star is where a group is joined. For = O=C*

As for “formyl-MDGCEL (For-MDGCEL; listed as Homo sapiens) [Foxy-5]”, the “apoptotic cells by Hoechst staining in response to tamoxifen” value in assay [1] was “apoptotic cells displaying altered nuclear morphology”. Further, the “increase of degree of apoptosis (caspase-3 activity)” value in assay [2] is listed as “three”. Further, in assay [3], the “Estradiol induced expression of CATD” value was “consistently lost” and the “Estradiol induced expression of EBAG9” value was “consistently lost”. In addition, in assay [4], the “Phosphorylated ERα (serine 118)” value is given as “detected”.

B1: recombinant Wnt-5a: recombinant Wnt-5a protein (R&D Systems) (protein, UniProt P41221 62-380, looked up)
Protein Wnt-5a: IIGAQPLCSQLAGLSQGQKKLCHLYQDHMQYIGEGAKTGIKECQYQFRHRRWNCSTVDNTSVFGRVMQIGSRETAFTYAVSAAGVVNAMSRACREGELSTCGCSRAARPKDLPRDWLWGGCGDNIDYGYRFAKEFVDARERERIHAKGSYESARILMNLHNNEAGRRTVYNLADVACKCHGVSGSCSLKTCWLQLADFRKVGDALKEKYDSAAAMRLNSRGKLVQVNSRFNSPTTQDLVYIDPSPDYCVRNESTGSLGTQGRLCNKTSEGMDGCELMCCGRGYDQFKTVQTERCHCKFHWCCYVKCKKCTEIVDQFVCK
In the case of B1, the “apoptotic cells by Hoechst staining in response to tamoxifen” value in assay [1] is “apoptotic cells displaying altered nuclear morphology”. Further, in assay [2], the “increase of degree of apoptosis (caspase-3 activity)” value is “two”. Further, in assay [3], the “Estradiol induced expression of CATD” value is recorded as “consistently lost” and the “Estradiol induced expression of EBAG9” value was “consistently lost”. For the same molecule, in assay [4], the “Phosphorylated ERα (serine 118)” value is given as “detected”.

The values above are taken from US20110124574A1, “RESTORATION OF ESTROGEN RECEPTOR-(ALPHA) ACTIVITY” (priority 2008, published 2011).
